# Data reported in US8076352B2, “Administration of carboline derivatives useful in the treatment of cancer and other diseases” (PTC Therapeutics, Inc., priority 2004, dated 2011).
# Tested on: hypoxia-inducible endogenous VEGF expression in HeLa cells
# Experiment: Hypoxia-inducible endogenous VEGF expression, VEGF ELISA of conditioned media (dose-response EC50)
# Type: cell-based
# Conditions: HeLa cells under hypoxic conditions
# Summary of the method: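 Secreted VEGF was quantified by ELISA against a per-assay standard curve after HeLa cells spent 24-48 h in 1% O2, 5% CO2, N2 balance with or without compound. Across a series of, e.g., seven concentrations, percentage inhibition (max 100%, min 0%) gave EC50 and CC50 values.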
row,EC50 [nM],Compound
1,200 to 1000,O=[N+](O)c1ccc(C2NCCc3c2[nH]c2ccc(Cl)cc32)cc1 (stereo not shown) [Compound 185]
2,8 to 40,CS(=O)(=O)c1ccc(C2c3[nH]c4ccc(Cl)cc4c3CCN2C(=O)N2CCOCC2)cc1 (stereo not shown) [Compound 361]
3,8 to 40,CCOC(=O)N1CCc2c([nH]c3ccc(Br)cc23)C1c1ccc([N+](=O)O)cc1 (stereo not shown) [Compound 59]

# Same assay, conditions: HeLa cells, hypoxic conditions (1% O2)
row,Compound,EC50 [nM]
1,CN(C)CCCOc1ccc(C2c3[nH]c4ccc(Cl)cc4c3CCN2C(=O)Oc2ccc(Br)cc2)cc1 (stereo not shown) [Compound 468],8 to 40

# Same assay, conditions: Homo sapiens, HeLa cells under hypoxic conditions
row,Compound,EC50 [nM]
1,CCOC(=O)N1CCc2c([nH]c3ccc(Cl)cc23)C1c1ccccc1OC (stereo not shown) [Compound 169],40 to 200
2,CCOC(=O)N1CCc2c([nH]c3ccc(Cl)cc23)C1c1ccc(O)cc1 (stereo not shown) [Compound 128],40 to 200
3,COCCNC(=S)N1CCc2c([nH]c3ccccc23)C1c1ccc(OC)cc1 (stereo not shown) [Compound 290],> 1000
4,CCCOC(=O)N1CCc2c([nH]c3ccc(Cl)cc23)C1c1ccc(C(F)(F)F)cc1 (stereo not shown) [Compound 19],< 8
5,Clc1ccc(C2NCCc3c2[nH]c2ccc(Cl)cc32)c(Cl)c1 (stereo not shown) [Compound 124],40 to 200
6,CC(C)(C)c1cc(C2c3[nH]c4ccc(Cl)cc4c3CCN2Cc2ccccc2)cc(C(C)(C)C)c1O (stereo not shown) [Compound 263],> 1000
7,Oc1c(F)cccc1C1NCCc2c1[nH]c1ccc(Br)cc21 (stereo not shown) [Compound 380],> 1000
8,CCOC(=O)N1CCc2c([nH]c3ccc(Cl)cc23)C1Cc1ccccc1 (stereo not shown) [Compound 226],200 to 1000
9,CC(C)(C)OC(=O)N1CCc2c([nH]c3ccc(Cl)cc23)C1c1ccc2c(c1)OCO2 (stereo not shown) [Compound 362],< 8
10,CC(C)NC(=O)N1CCc2c([nH]c3ccc(Br)cc23)C1c1cccc(Cl)c1 (stereo not shown) [Compound 199],200 to 1000
11,Brc1ccc2[nH]c3c(c2c1)CCNC3c1ccccc1 (stereo not shown) [Compound 174],200 to 1000
12,COc1ccc2c3c([nH]c2c1)C(c1ccccc1)NCC3 (stereo not shown) [Compound 321],> 1000
13,COc1ccc(C2c3[nH]c4ccc(Cl)cc4c3CCN2C(=O)NCCCl)cc1 (stereo not shown) [Compound 217],200 to 1000
14,CCOC(=O)N1CCc2c([nH]c3ccc(Cl)cc23)C1c1ccc(C#N)cc1 (stereo not shown) [Compound 120],8 to 40
15,Fc1ccc(C2NCCc3c2[nH]c2ccc(Br)cc32)c(F)c1 (stereo not shown) [Compound 161],40 to 200
16,CC(C)c1ccc(C2c3[nH]c4ccc(Cl)cc4c3CCN2C(=O)OCCCl)cc1 (stereo not shown) [Compound 18],< 8
17,COc1cccc(C2NCCc3c2[nH]c2ccc(Cl)cc32)c1 (stereo not shown) [Compound 210],200 to 1000

row,Compound,EC50 [nM]
1,Clc1ccc2[nH]c3c(c2c1)CCN(Cc1ccccc1)C3c1cccnc1 (stereo not shown) [Compound 276],> 1000
2,CC(=O)N1CCc2c([nH]c3ccc(Br)cc23)C1c1ccc(C(C)C)cc1 (stereo not shown) [Compound 102],8 to 40
3,CC(C)c1ccc(C2NCCc3c2[nH]c2ccc(Br)cc32)cc1 (stereo not shown) [Compound 112],8 to 40
4,O=[N+]([O-])c1cccc(C2NCCc3c2[nH]c2ccc(Cl)cc32)c1 (stereo not shown) [Compound 239],> 1000
5,Fc1cccc(C2NCCc3c2[nH]c2ccc(Br)cc32)c1F (stereo not shown) [Compound 132],40 to 200
6,Clc1ccc2[nH]c3c(c2c1)CCN(Cc1ccccc1)C3c1ccncc1 (stereo not shown) [Compound 272],> 1000
7,CC(C)c1ccc(C2NCCc3c2[nH]c2ccc(Cl)cc32)cc1 (stereo not shown) [Compound 162],40 to 200
8,Clc1ccc2[nH]c3c(c2c1)CNCC3c1ccccc1 (stereo not shown) [Compound 248],> 1000
9,Cc1cccc2c3c([nH]c12)C(c1cccc(Br)c1)NCC3 (stereo not shown) [Compound 305],> 1000
10,Fc1ccc(C2NCCc3c2[nH]c2ccc(Br)cc32)cc1F (stereo not shown) [Compound 201],200 to 1000
11,CCOC(=O)N1CCc2c([nH]c3ccc(Cl)cc23)C1c1ccc(C(C)C)cc1 (stereo not shown) [Compound 14],< 8
12,CS(=O)(=O)c1ccc(C2c3[nH]c4ccc(Cl)cc4c3CCN2C(=O)N2CCOCC2)cc1 (stereo not shown) [Compound 309],8 to 40
13,Fc1ccc2[nH]c3c(c2c1)CCNC3c1ccc(Cl)cc1Cl (stereo not shown) [Compound 257],> 1000
14,COc1ccc(C2c3[nH]c4ccccc4c3CCN2C(=S)NC(C)C)cc1 (stereo not shown) [Compound 289],> 1000
15,CC(C)OC(=O)N1CCc2c([nH]c3ccc(Cl)cc23)C1c1ccc(Cl)cc1 (stereo not shown) [Compound 40],< 8
16,Clc1ccc2[nH]c3c(c2c1)CCNC3Cc1ccccc1 (stereo not shown) [Compound 251],> 1000
17,COc1ccc(C2c3[nH]c4ccccc4c3CCN2C(=O)Nc2ccc(C(C)C)cc2)cc1 (stereo not shown) [Compound 304],> 1000

# Now from value to compound:
row,EC50 [nM],Compound
1,< 8,CCSC(=S)N1CCc2c([nH]c3ccc(Cl)cc23)C1c1ccc(OC)cc1 (stereo not shown) [Compound 383]
2,> 1000,COc1ccc(OC(=O)N2CCc3c([nH]c4ccc(Br)cc34)[C@@H]2c2ccc(Cl)cc2)cc1 [#332]
3,8 to 40,COC(=O)N1CCc2c([nH]c3ccc(Cl)cc23)C1c1ccc(Cl)cc1 (stereo not shown) [Compound 70]
4,> 1000,COc1ccc(C2c3[nH]c4ccc(Cl)cc4c3CCN2C(=O)N(C)c2ccccc2)cc1 (stereo not shown) [Compound 340]
5,< 8,Cc1ccc(C2c3[nH]c4ccc(Cl)cc4c3CCN2C(=O)Oc2ccc(Cl)cc2)cc1 (stereo not shown) [Compound 347]
6,200 to 1000,CC(=O)N1CCc2c([nH]c3ccc(Cl)cc23)C1c1ccc(OCc2ccccc2)cc1 (stereo not shown) [Compound 184]
7,40 to 200,COc1ccc(C2c3[nH]c4ccc(Br)cc4c3CCN2C(C)=O)cc1 (stereo not shown) [Compound 130]
8,40 to 200,COc1ccc(C2c3[nH]c4ccc(Cl)cc4c3CCN2C(=O)Nc2ccccc2)cc1 (stereo not shown) [Compound 167]
9,40 to 200,CCC(=O)N1CCc2c([nH]c3ccc(Cl)cc23)C1c1ccc(OC)cc1 (stereo not shown) [Compound 143]
10,< 8,CCCOC(=O)N1CCc2c([nH]c3ccc(Cl)cc23)C1c1ccc(Br)cc1 (stereo not shown) [Compound 41]
11,< 8,CCOC(=O)N1CCc2c([nH]c3ccc(Cl)cc23)C1c1ccc(OC)cc1 (stereo not shown) [Compound 2]
12,200 to 1000,COc1ccc(C2c3[nH]c4ccc(Cl)cc4c3CCN2C(=O)OC(C)Cl)cc1 (stereo not shown) [Compound 182]
13,> 1000,COc1ccc(C2c3[nH]c4ccc(Br)cc4c3CCN2c2ncccn2)cc1 (stereo not shown) [Compound 329]
14,< 8,CCOC(=O)N1CCc2c([nH]c3ccc(Br)cc23)C1c1ccc(C)cc1 (stereo not shown) [#8]
15,40 to 200,COc1ccc(C2c3[nH]c4ccc(Cl)cc4c3CCN2C(=O)c2ccc(F)c(Cl)c2)cc1 (stereo not shown) [Compound 371]
16,8 to 40,O=C(Oc1ccc(Cl)cc1)N1CCc2c([nH]c3ccc(Cl)cc23)C1c1ccc(Cl)cc1 (stereo not shown) [Compound 351]
17,8 to 40,COC(=O)N1CCc2c([nH]c3ccc(Cl)cc23)C1c1ccc(F)cc1 (stereo not shown) [Compound 68]

# Same assay, conditions: Homo sapiens, HeLa cells, hypoxic conditions (1% O2)
row,Compound,EC50 [nM]
1,O=C(Oc1ccc(F)cc1)N1CCc2c([nH]c3ccc(Cl)cc23)C1c1ccc(OCCCCCCN2CCOCC2)cc1 (stereo not shown) [Compound 776],< 8
2,CCOC(=O)N1CCc2c([nH]c3ccc(Cl)cc23)C1c1cccc(C(=O)NCCN2CCOCC2)c1 (stereo not shown) [Compound 552],200 to 1000
3,CCOC(=O)N1CCc2c([nH]c3ccc(Cl)cc23)C1CC(C)c1ccccc1 (stereo not shown) [Compound 508],40 to 200
4,CCOC(=O)N1CCc2c([nH]c3ccc(Cl)cc23)C1c1ccc(C(=O)N2CCOCC2)cc1 (stereo not shown) [Compound 492],40 to 200
5,CCOC(=O)N1CCc2c([nH]c3ccc(Br)cc23)C1c1ccc(CN2CCN(C)CC2)cc1 (stereo not shown) [Compound 474],40 to 200
6,COCCOc1ccc(C2c3[nH]c4ccc(Cl)cc4c3CCN2C(=O)OCCF)cc1 (stereo not shown) [Compound 423],< 8
7,CCOC(=O)N1CCc2c([nH]c3ccc(Cl)cc23)C1c1ccc(C(=O)NCC2CCCO2)cc1 (stereo not shown) [Compound 494],40 to 200
8,CCOC(=O)N1CCc2c([nH]c3ccc(Cl)cc23)C1c1cnc(N(C)C)nc1 (stereo not shown) [Compound 476],40 to 200
9,CCOC(=O)N1CCc2c([nH]c3ccc(Br)cc23)C1c1ccc(C(=O)N2CCCN(C)CC2)cc1 (stereo not shown) [Compound 484],40 to 200
10,CC(C)(C)OC(=O)N[C@@H](Cc1ccccc1)C(=O)Oc1ccc(C2c3[nH]c4ccc(Cl)cc4c3CCN2C(=O)OC(C)(C)C)cc1 (stereo partly shown) [Compound 451],8 to 40
11,CCOC(=O)N1CCC(NC(=O)c2ccc(C3c4[nH]c5ccc(Cl)cc5c4CCN3C(=O)OCC)cc2)CC1 (stereo not shown) [Compound 453],8 to 40

# Continued, values first:
row,EC50 [nM],Compound
1,< 8,O=C(Oc1ccc(F)cc1)N1CCc2c([nH]c3ccc(Cl)cc23)C1c1ccc(OCCCCCCn2ccnc2)cc1 (stereo not shown) [Compound 780]
2,< 8,O=C(Oc1ccc(Cl)cc1)N1CCc2c([nH]c3ccc(Cl)cc23)C1c1ccc(OCC(O)CO)cc1 (stereo not shown) [Compound 629]
3,8 to 40,O=C(Oc1ccc(Cl)cc1)N1CCc2c([nH]c3ccc(Cl)cc23)C1c1ccc(OCCCCn2ccnc2)cc1 (stereo not shown) [Compound 705]
4,200 to 1000,COc1ccc(C2c3[nH]c4ccc(OC)cc4c3CCN2C(=O)Oc2ccc(Cl)cc2)cc1 (stereo not shown) [Compound 614]
5,200 to 1000,O=C(O)c1ccc(C2c3[nH]c4ccc(Br)cc4c3CCN2C(=O)Oc2ccc(Cl)cc2)cc1 (stereo not shown) [Compound 519]
6,< 8,O=C(Oc1ccc(F)cc1)N1CCc2c([nH]c3ccc(Cl)cc23)C1c1ccc(OCCCCn2ccnc2)cc1 (stereo not shown) [Compound 742]
7,< 8,COc1ccc(OC(=O)N2CCc3c([nH]c4ccc(Br)cc34)C2c2cnc(N(C)C)nc2)cc1 (stereo not shown) [Compound 431]
8,8 to 40,COC(=O)c1ccc(C2c3[nH]c4ccc(Cl)cc4c3CCN2C(=O)Oc2ccccc2Cl)cc1 (stereo not shown) [Compound 590]

# Same assay, conditions: Homo sapiens, HeLa cells, hypoxic conditions (1% O2, 5% CO2)
row,Compound,EC50 [nM]
1,O=C(Oc1ccc(F)cc1)N1CCc2c([nH]c3ccc(Cl)cc23)C1c1ccc(OCCCN2CCOCC2)cc1 (stereo not shown) [Compound 989],< 8
2,Cc1cnc(NCCOc2ccc(C3c4[nH]c5ccc(Cl)cc5c4CCN3C(=O)Oc3ccc(F)cc3)cc2)s1 (stereo not shown) [#838],< 8
3,Cc1ccc(OC(=O)N2CCc3c([nH]c4ccc(Cl)cc34)C2c2ccc(OCCCn3ccnc3)cc2)cc1 (stereo not shown) [Compound 900],< 8
4,O=C(Oc1ccc(Cl)cc1)N1CCc2c([nH]c3ccc(Cl)cc23)C1c1ccc(OCCCN2CCSCC2)cc1 (stereo not shown) [Compound 933],< 8
5,CC(C)NCCCOc1ccc(C2c3[nH]c4ccc(Cl)cc4c3CCN2C(=O)Oc2ccc(Cl)cc2)cc1 (stereo not shown) [Compound 953],8 to 40
